In ChEMBL document CHEMBL1146842, “Design, synthesis, and biological evaluations of novel quinolones as HIV-1 non-nucleoside reverse transcriptase inhibitors” (Bioorg Med Chem Lett, 2006):
pEC50: −log10 of the molar value.

Assays:
[1] = system: Human immunodeficiency virus 1; assay: Antiviral activity against HIV1; assay type: functional, organism-based
[2] = system: HEK293; assay: Cytotoxicity against HEK293T cells; assay type: functional; conditions: Homo sapiens
[3] = system: Human immunodeficiency virus 1; assay: Antiviral activity against HIV1 L100I mutant; assay type: functional, organism-based
[4] = system: Human immunodeficiency virus 1; assay: Antiviral activity against HIV1 Y181S mutant; assay type: functional, organism-based
[5] = system: Human immunodeficiency virus 1; assay: Antiviral activity against HIV1 K103N mutant; assay type: functional, organism-based
[6] = system: Human immunodeficiency virus 1; assay: Antiviral activity against HIV1 Y181C mutant; assay type: functional, organism-based
[7] = system: Human immunodeficiency virus 1; assay: Antiviral activity against HIV1 I135V mutant; assay type: functional, organism-based
[8] = system: Human immunodeficiency virus 1; assay: Antiviral activity against HIV1 F227L mutant; assay type: functional, organism-based
[9] = system: Human immunodeficiency virus 1; assay: Antiviral activity against HIV1 Y188L mutant; assay type: functional, organism-based
[10] = system: Human immunodeficiency virus 1; assay: Antiviral activity against HIV1 E138K mutant; assay type: functional, organism-based
[11] = system: Human immunodeficiency virus 1; assay: Antiviral activity against HIV1 V106A mutant; assay type: functional, organism-based
[12] = system: Human immunodeficiency virus 1; assay: Antiviral activity against HIV1 V179E mutant; assay type: functional, organism-based
[13] = system: Human immunodeficiency virus 1; assay: Antiviral activity against HIV1 Y181H mutant; assay type: functional, organism-based

SMILES	pEC50 [1]	CC50 [2] [nM]	pEC50 [3]	pEC50 [4]	pEC50 [5]	pEC50 [6]	pEC50 [7]	pEC50 [8]	pEC50 [9]	pEC50 [10]	pEC50 [11]	pEC50 [12]	pEC50 [13]
CCOC(=O)C12CC1(Cc1ccccc1)c1cc(Cl)ccc1NC2=O (configuration not stated)	< 5.00	> 10000	–	–	–	–	–	–	–	–	–	–	–
CCCCC12CC1(C(=O)NCC)C(=O)Nc1ccc(Cl)cc12 (configuration not stated)	6.13	> 10000	–	–	–	–	–	–	–	–	–	–	–
CCOC(=O)C12CC1(CC)c1cc(Cl)ccc1NC2=O (configuration not stated)	5.30	> 10000	–	–	–	–	–	–	–	–	–	–	–
CCCCC12CC1(C(=O)NCc1ccccc1)C(=O)Nc1ccc(Cl)cc12 (configuration not stated)	5.55	8820	–	–	–	–	–	–	–	–	–	–	–
CCCCc1c(C(=O)OCC)c(O)nc2ccc(Cl)cc12	6.78	> 10000	–	–	–	–	–	–	–	–	–	–	–
CCCCCCC12CC1(C(=O)OCC)C(=O)Nc1ccc(Cl)cc12 (configuration not stated)	7.60	> 10000	7.28	6.03	5.51	5.65	7.18	7.39	< 5.00	7.01	6.06	5.80	7.21
CCOC(=O)C12CC1(c1ccc(-c3ccccc3)cc1)c1cc(Cl)ccc1NC2=O (configuration not stated)	< 5.00	> 10000	–	–	–	–	–	–	–	–	–	–	–
C=CCNC(=O)C12CC1(CCCC)c1cc(Cl)ccc1NC2=O (configuration not stated)	6.31	> 10000	–	–	–	–	–	–	–	–	–	–	–
CCCCC12CC1(C(=O)Nc1ccccc1C#N)C(=O)Nc1ccc(Cl)cc12 (configuration not stated)	5.77	6090	–	–	–	–	–	–	–	–	–	–	–
CCCCC12CC1(C(=O)Nc1ccncc1)C(=O)Nc1ccc(Cl)cc12 (configuration not stated)	5.08	> 10000	–	–	–	–	–	–	–	–	–	–	–
CCCCC12CC1(C(=O)Nc1ccc(C(=O)O)cc1)C(=O)Nc1ccc(Cl)cc12 (configuration not stated)	< 5.00	> 10000	–	–	–	–	–	–	–	–	–	–	–
CCCCC12CC1(C(=O)N(C)CC)C(=O)Nc1ccc(Cl)cc12 (configuration not stated)	< 5.00	> 10000	–	–	–	–	–	–	–	–	–	–	–
CCCCC(=O)C12CC1(CCCC)c1cc(Cl)ccc1NC2=O (configuration not stated)	5.20	> 10000	–	–	–	–	–	–	–	–	–	–	–
CCCC12CC1(C(=O)OCC)C(=O)Nc1ccc(Cl)cc12 (configuration not stated)	7.35	> 10000	7.39	5.92	< 5.00	< 5.00	7.01	7.59	< 5.00	6.88	5.99	5.72	6.68
CCCCC12CC1(C(=O)Nc1cccc(C#N)c1)C(=O)Nc1ccc(Cl)cc12 (configuration not stated)	6.80	> 10000	–	–	–	–	–	–	–	–	–	–	–
CCCCC12CC1(COCC)C(=O)Nc1ccc(Cl)cc12 (configuration not stated)	7.19	> 10000	7.41	5.38	5.40	5.21	7.13	6.60	< 5.00	7.03	5.95	5.99	6.67
CCCCC12CC1(C(=O)NC(C)C)C(=O)Nc1ccc(Cl)cc12 (configuration not stated)	5.56	> 10000	–	–	–	–	–	–	–	–	–	–	–
CCCCC12CC1(COC(C)=O)C(=O)Nc1ccc(Cl)cc12 (configuration not stated)	7.43	> 10000	7.35	5.63	5.58	5.13	7.19	9.00	< 5.00	7.27	5.33	6.13	7.23
CCCCC1(C)c2cc(Cl)ccc2NC(=O)C1C(=O)OCC (configuration not stated)	5.85	> 10000	–	–	–	–	–	–	–	–	–	–	–
CCCCC12CC1(C(=O)Nc1ccccn1)C(=O)Nc1ccc(Cl)cc12 (configuration not stated)	5.57	> 10000	–	–	–	–	–	–	–	–	–	–	–
CCCCC12CC1(C(N)=O)C(=O)Nc1ccc(Cl)cc12 (configuration not stated)	7.92	> 10000	7.89	5.60	5.42	5.10	7.82	9.00	< 5.00	7.34	5.66	6.36	7.20
C=CCCCC12CC1(C(=O)OCC)C(=O)Nc1ccc(Cl)cc12 (configuration not stated)	9.00	> 10000	7.46	5.77	5.90	< 5.00	7.48	8.05	< 5.00	7.24	6.59	6.52	7.05
CCCCC12CC1(C(=O)Oc1ccc(C#N)cc1)C(=O)Nc1ccc(Cl)cc12 (configuration not stated)	5.96	> 10000	–	–	–	–	–	–	–	–	–	–	–
CCCCCC12CC1(C(=O)OCC)C(=O)Nc1ccc(Cl)cc12 (configuration not stated)	9.00	> 10000	7.92	6.43	6.17	6.03	7.77	8.30	< 5.00	7.74	6.62	6.63	7.80
CCCCC12CC1(C(=O)Oc1ccccc1)C(=O)Nc1ccc(Cl)cc12 (configuration not stated)	< 5.00	> 10000	–	–	–	–	–	–	–	–	–	–	–
